Experimental data published in patent US12502434B2, “Compound comprising EZH2 inhibitor and E3 ligase binder and pharmaceutical composition for preventing or treating EZH2-associated disease comprising same as active ingredient” (DAEGU-GYEONGBUK MEDICAL INNOVATION FOUNDATION, priority 2019, dated 2025).
Read-outs that look alike come from different tables or passages of the source.

Biological target: T1, EZH2 protein in LS174T cells (Homo sapiens, UniProt Q15910)
T1 construct: endogenous in cells; host or cells: LS174T
T1 sequence (Q15910 whole entry): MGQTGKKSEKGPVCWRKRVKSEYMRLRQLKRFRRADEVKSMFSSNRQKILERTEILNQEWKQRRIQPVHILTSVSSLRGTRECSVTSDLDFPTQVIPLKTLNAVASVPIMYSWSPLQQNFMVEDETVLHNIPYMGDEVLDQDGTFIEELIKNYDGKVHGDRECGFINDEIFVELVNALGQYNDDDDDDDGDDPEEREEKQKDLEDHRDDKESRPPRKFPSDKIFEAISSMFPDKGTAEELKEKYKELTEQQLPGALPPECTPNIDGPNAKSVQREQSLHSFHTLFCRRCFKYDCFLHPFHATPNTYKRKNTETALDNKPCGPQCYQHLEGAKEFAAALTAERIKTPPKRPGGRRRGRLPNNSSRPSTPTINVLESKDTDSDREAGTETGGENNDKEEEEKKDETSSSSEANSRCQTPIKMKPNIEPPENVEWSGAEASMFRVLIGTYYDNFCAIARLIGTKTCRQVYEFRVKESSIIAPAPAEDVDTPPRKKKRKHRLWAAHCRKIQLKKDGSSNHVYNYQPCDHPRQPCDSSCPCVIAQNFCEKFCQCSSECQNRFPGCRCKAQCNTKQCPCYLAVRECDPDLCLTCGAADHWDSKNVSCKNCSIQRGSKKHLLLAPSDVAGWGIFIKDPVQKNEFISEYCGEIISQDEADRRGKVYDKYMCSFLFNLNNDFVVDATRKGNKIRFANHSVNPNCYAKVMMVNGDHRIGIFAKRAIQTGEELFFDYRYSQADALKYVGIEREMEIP
T1 sequence (O75530 whole entry partner): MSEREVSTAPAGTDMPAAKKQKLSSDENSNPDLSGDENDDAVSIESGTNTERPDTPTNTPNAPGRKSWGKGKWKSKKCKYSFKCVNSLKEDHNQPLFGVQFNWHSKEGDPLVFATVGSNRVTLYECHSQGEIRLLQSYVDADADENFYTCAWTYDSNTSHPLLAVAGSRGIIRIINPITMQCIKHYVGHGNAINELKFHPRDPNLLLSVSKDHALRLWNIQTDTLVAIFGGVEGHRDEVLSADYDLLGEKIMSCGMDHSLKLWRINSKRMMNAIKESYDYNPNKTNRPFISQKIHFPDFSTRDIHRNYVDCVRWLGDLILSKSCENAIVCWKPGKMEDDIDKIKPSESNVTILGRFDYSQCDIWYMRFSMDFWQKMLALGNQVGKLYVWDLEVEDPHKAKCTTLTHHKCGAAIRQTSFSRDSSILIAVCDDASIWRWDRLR
T1 sequence (Q15022 whole entry partner): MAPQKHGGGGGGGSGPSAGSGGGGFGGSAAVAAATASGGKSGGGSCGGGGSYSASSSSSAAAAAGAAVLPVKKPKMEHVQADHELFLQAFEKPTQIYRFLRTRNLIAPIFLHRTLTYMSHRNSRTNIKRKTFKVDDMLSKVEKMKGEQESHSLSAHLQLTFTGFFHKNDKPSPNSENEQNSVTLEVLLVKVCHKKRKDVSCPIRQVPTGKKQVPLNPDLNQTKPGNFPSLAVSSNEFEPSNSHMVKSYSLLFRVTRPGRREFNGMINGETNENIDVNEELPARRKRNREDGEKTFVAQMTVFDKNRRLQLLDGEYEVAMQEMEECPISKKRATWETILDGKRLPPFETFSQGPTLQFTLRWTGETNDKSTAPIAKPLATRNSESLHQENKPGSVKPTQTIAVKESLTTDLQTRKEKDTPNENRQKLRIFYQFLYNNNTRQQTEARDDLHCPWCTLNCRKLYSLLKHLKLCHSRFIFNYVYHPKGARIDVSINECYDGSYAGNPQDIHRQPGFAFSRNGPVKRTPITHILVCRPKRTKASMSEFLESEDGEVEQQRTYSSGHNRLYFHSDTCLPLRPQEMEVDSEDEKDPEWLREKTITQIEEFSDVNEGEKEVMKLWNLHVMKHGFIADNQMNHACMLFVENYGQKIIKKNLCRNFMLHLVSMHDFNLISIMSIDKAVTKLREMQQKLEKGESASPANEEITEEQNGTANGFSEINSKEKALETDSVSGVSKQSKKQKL
Experiment: Proteolytic effect in colorectal cancer cells (Western blotting)
Type: cell-based
Experimental: After 72 hours of the treatment, the cells were collected and lysed using RIPA buffer (50 mM Tris, pH 7.5, 150 mM NaCl, 1% Triton X-100, 0.1% SDS, […], 0.5% deoxycholate, and protease inhibitor cocktail), followed by sonication (30 sec on/30 sec off, 5 cycles) to prepare a cell lysate.

[1] = EZH2 protein, LS174T cells, 1 μM, 72 hours
[2] = EZH2 protein, LS174T cells, 1 uM, 72 hours, Western blotting

SMILES	%, degradation at 1 uM	Grade (percent value of the protein degradation when treated with 1 μM)	Grade (percent value of the protein degradation when treated with 1 μM) [1]	%, degradation at 1 uM [2]
CCN(c1cc(-c2ccc(CN3CCN(CC(=O)NCCCCCCNC(=O)[C@H](CC(C)C)NC(=O)[C@@H](O)[C@H](N)Cc4ccccc4)CC3)cc2)cc(C(=O)NCc2c(C)cc(C)[nH]c2=O)c1C)C1CCOCC1 [Example 50, 4′-((4-(2-((6-((S)-2-((2S,3R)-3-amino-2-hydroxy-4-phenylbutanamido)-4-methylpentanamido)hexyl)amino)-2-oxoethyl)piperazine-1-yl)methyl)-N-((4,6-dimethyl-2-oxo-1,2-dihydropyridine-3-yl)methyl)-5-(ethyl(tetrahydro-2H-pyran-4-yl)amino)-4-methyl-[1,1′-biphenyl]-3-carboxamide]	0%	D (key: A: >75%; B: 50-75%; C: 25-50%; D: <25%)	–	–
CCN(c1cc(-c2ccc(CN3CCN(CC(=O)NCCCCCCNc4cccc5c4C(=O)N(C4CCC(=O)NC4=O)C5)CC3)cc2)cc(C(=O)NCc2c(C)cc(C)[nH]c2=O)c1C)C1CCOCC1 (stereo not drawn) [Example 22, N-((4,6-dimethyl-2-oxo-1,2-dihydropyridine-3-yl)methyl)-4′-((4-(2-((6-((2-(2,6-dioxopiperidine-3-yl)-3-oxoisoindoline-4-yl)amino)hexyl)amino)-2-oxoethyl)piperazine-1-yl)methyl)-5-(ethyl(tetrahydro-2H-pyran-4-yl)amino)-4-methyl-[1,1′-biphenyl]-3-carboxamide]	–	–	D (<25%)	0%
CCN(c1cc(-c2ccc(CN3CCN(C(=O)CNCCNc4cccc5c4C(=O)N(C4CCC(=O)NC4=O)C5=O)CC3)cc2)cc(C(=O)NCc2c(C)cc(C)[nH]c2=O)c1C)C1CCOCC1 (stereo not drawn) [Example 12, N-((4,6-dimethyl-2-oxo-1,2-dihydropyridine-3-yl)methyl)-4′-((4-((2-((2-(2,6-dioxopiperidine-3-yl)-1,3-dioxoisoindoline-4-yl)amino)ethyl)glycyl)piperazine-1-yl)methyl)-5-(ethyl(tetrahydro-2H-pyran-4-yl)amino)-4-methyl-[1,1′-biphenyl]-3-carboxamide]	–	–	D (<25%)	16.89%
CCN(c1cc(-c2ccc(CN3CCN(CC(=O)NCCNc4cccc5c4C(=O)N(C4CCC(=O)NC4=O)C5=O)CC3)cc2)cc(C(=O)NCc2c(C)cc(C)[nH]c2=O)c1C)C1CCOCC1 (stereo not drawn) [Example 1, N-((4,6-dimethyl-2-oxo-1,2-dihydropyridine-3-yl)methyl)-4′-((4-(2-((2-((2-(2,6-dioxopiperidine-3-yl)-1,3-dioxoisoindoline-4-yl)amino)ethyl)amino)-2-oxoethyl)piperazine-1-yl)methyl)-5-(ethyl(tetrahydro-2H-pyran-4-yl)amino)-4-methyl-[1,1′-biphenyl]-3-carboxamide]	–	–	D (<25%)	8.15%
CCN(c1cc(-c2ccc(CN3CCN(CC(=O)NCCCOCCN[C@H](C(=O)N4C[C@H](O)C[C@H]4C(=O)NCc4ccc(-c5scnc5C)cc4)C(C)(C)C)CC3)cc2)cc(C(=O)NCc2c(C)cc(C)[nH]c2=O)c1C)C1CCOCC1 [Example 39, (2S,4R)-1-((S)-2-((2-(3-(2-(4-((3′-(((4,6-dimethyl-2-oxo-1,2-dihydropyridine-3-yl)methyl)carbamoyl)-5′-(ethyl(tetrahydro-2H-pyran-4-yl)amino)-4′-methyl-[1,1′-biphenyl]-4-yl)methyl)piperazine-1-yl)acetamido)propoxy)ethyl)amino)-3,3-dimethylbutanoyl)-4-hydroxy-N-(4-(4-methylthiazole-5-yl)benzyl)pyrrolidine-2-carboxamide]	–	–	D (<25%)	0%
CCN(c1cc(-c2ccc(CN3CCN(CC(=O)NCCOCCCNc4cccc5c4C(=O)N(C4CCC(=O)NC4=O)C5=O)CC3)cc2)cc(C(=O)NCc2c(C)cc(C)[nH]c2=O)c1C)C1CCOCC1 (stereo not drawn) [Example 16, N-((4,6-dimethyl-2-oxo-1,2-dihydropyridine-3-yl)methyl)-4′-((4-(2-((2-(3-((2-(2,6-dioxopiperidine-3-yl)-1,3-dioxoisoindoline-4-yl)amino)propoxy)ethyl)amino)-2-oxoethyl)piperazine-1-yl)methyl)-5-(ethyl(tetrahydro-2H-pyran-4-yl)amino)-4-methyl-[1,1′-biphenyl]-3-carboxamide]	5.51%	D (key: A: >75%; B: 50-75%; C: 25-50%; D: <25%)	–	–
CCN(c1cc(-c2ccc(CN3CCN(CC(=O)NCCOCCCN[C@H](C(=O)N4C[C@H](O)C[C@H]4C(=O)NCc4ccc(-c5scnc5C)cc4)C(C)(C)C)CC3)cc2)cc(C(=O)NCc2c(C)cc(C)[nH]c2=O)c1C)C1CCOCC1 [Example 40, (2S,4R)-1-((S)-2-((3-(2-(2-(4-((3′-(((4,6-dimethyl-2-oxo-1,2-dihydropyridine-3-yl)methyl)carbamoyl)-5′-(ethyl(tetrahydro-2H-pyran-4-yl)amino)-4′-methyl-[1,1′-biphenyl]-4-yl)methyl)piperazine-1-yl)acetamido)ethoxy)propyl)amino)-3,3-dimethylbutanoyl)-4-hydroxy-N-(4-(4-methylthiazole-5-yl)benzyl)pyrrolidine-2-carboxamide]	–	–	D (<25%)	0%
CCN(c1cc(-c2ccc(CN3CCN(CC(=O)N4CC5(CN(CCNc6cccc7c6C(=O)N(C6CCC(=O)NC6=O)C7=O)C5)C4)CC3)cc2)cc(C(=O)NCc2c(C)cc(C)[nH]c2=O)c1C)C1CCOCC1 (stereo not drawn) [Example 36, N-((4,6-dimethyl-2-oxo-1,2-dihydropyridine-3-yl)methyl)-4′-((4-(2-(6-(2-((2-(2,6-dioxopiperidine-3-yl)-1,3-dioxoisoindoline-4-yl)amino)ethyl)-2,6-diazaspiro[3.3]heptane-2-yl)-2-oxoethyl)piperazine-1-yl)methyl)-5-(ethyl(tetrahydro-2H-pyran-4-yl)amino)-4-methyl-[1,1′-biphenyl]-3-carboxamide]	–	–	D (<25%)	0%
CCN(c1cc(-c2ccc(CN3CCN(CC(=O)NCCCCCC(=O)N[C@H](C(=O)N4C[C@H](O)C[C@H]4C(=O)NCc4ccc(-c5scnc5C)cc4)C(C)(C)C)CC3)cc2)cc(C(=O)NCc2c(C)cc(C)[nH]c2=O)c1C)C1CCOCC1 [Example 41, (2S,4R)-1-((S)-2-(6-(2-(4-((3′-(((4,6-dimethyl-2-oxo-1,2-dihydropyridine-3-yl)methyl)carbamoyl)-5′-(ethyl(tetrahydro-2H-pyran-4-yl)amino)-4′-methyl-[1,1′-biphenyl]-4-yl)methyl)piperazine-1-yl)acetamido)hexanamido)-3,3-dimethylbutanoyl)-4-hydroxy-N-(4-(4-methylthiazole-5-yl)benzyl)pyrrolidine-2-carboxamide]	–	–	D (<25%)	8.36%
